Data: US20100272642A1, “PET PROBE HAVING AN ALKOXY GROUP SUBSTITUTED BY FLUORINE AND HYDROXY GROUP” (TOHOKU UNIVERSITY, priority 2007, published 2010)
“Also recorded” adds a separate entry of the source.

Tests used:
[1] = Evaluation of blood-brain barrier permeability and osseous accumulation of the [18F] labeled compound in mice; type: in vivo, mouse; conditions: for % ID/g or ml (mean ± standard deviation), Blood plasma / % ID/g or ml (mean ± standard deviation), Bone / % ID/g or ml (mean ± standard deviation), Brain: male ICR mice, tail vein administration; for % ID/g or ml (mean ± standard deviation), Bone: bone (femur); for osseous accumulation: mice, 2, 30, 60 minutes after administration, in words; for wash-out from the brain / defluorination in vivo: mice; for wash-out from the brain: compared with [18F]BF-227; for defluorination in vivo: suggested from osseous accumulation
Description: The physiological saline solution containing [^18F] BF-837 or [^18F] THK-853 was administered into the tail vein of the male ICR mice (6-7 weeks of age), and blood-brain barrier permeability and osseous accumulation of each labeled compound were evaluated based on accumulation of radioactive in the brain tissue and the bone tissue at 2, 30, 60 minutes after.
The radiochemical purity of the used physiological saline containing the labeled compound used was 95% or greater, and specific activity was 18.5 to 148 GBq/μmol, and 1.11-2.22 MBq of the labeled compound per mouse was administered. In the evaluation of radiation accumulation, the ratio of radiation per unit weight of the evaluation tissue against the whole radiation administered (% Injected Dose/g of tissue; % ID/g) was used as the index. For measurement of the radiation, the gamma counter (1480 WIZARD, PerkinElmer, Inc.) was used. The experimental procedure was as follows. The labeled compound was administered into the caudal vein and dislocation in the cervical spine of the mice was conducted under the ether anesthesia at 2, 30, and 60 minutes after, and after promptly harvesting the blood from the heart, the whole brain (including the cerebellum, brain stem) and the femur were removed.

amyloid β protein = target: T1, amyloid β protein (Homo sapiens, UniProt P05067); experiment: Staining test on the brain section of patients with Alzheimer's disease; type: binding; conditions: 100 μM compound in 50% ethanol, 10 minutes, fluorescence microscope
T1 construct: tissue Choju Medical Institute in Fukushimura Hospital; host or cells: Paraffin-embedded post-mortem human brain sections (temporal lobe or hippocampus)
T1 sequence (P05067 672-713 limits assumed): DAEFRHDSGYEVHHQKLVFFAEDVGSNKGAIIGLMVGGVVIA
Source text: The procedure of […] of the compounds of the present invention on the brain section of patients with Alzheimer's disease is explained as follows.
(1) The brain samples from the temporal lobe or hippocampus of patients pathologically definitely diagnosed as having Alzheimer's disease and normal elderly individuals were used. The samples were obtained from Choju Medical Institute in Fukushimura Hospital, our collaborative research institute, and the consent for the use for research purpose was obtained from the patients' deceased family members (Fukushimura Hospital, Ethic Committee Approval No. 20).
(2) The brain tissue embedded in the paraffin was thinly sectioned into 6 or 8 μm in thickness, extended on the slide glass, and dried. The paraffined brain section was deparaffined by washing with xylene 10 minutes×2, 100% ethanol 5 minutes×2, 90% ethanol 5 minutes, and running water 10 minutes in this order.
(3) As the pretreatment of staining by the compound of the present invention, the treatment to remove autofluorescence by lipofuscin was conducted. […]
(4) From 100 μM of the compound solution of the present invention dissolved in 50% ethanol, about 150 μl was added dropwise, and was reacted for 10 minutes. After being soaked in the tap water 5 times, it was encapsulated with Flour Save Reagent (Calbiochem) and examined with a fluorescence microscope (Nikon, Eclipse 80i). […]

Compound | % ID/g or ml (mean ± standard deviation), Blood plasma ([1]; 2 minutes after) | % ID/g or ml (mean ± standard deviation), Blood plasma ([1]; 30 minutes after) | % ID/g or ml (mean ± standard deviation), Blood plasma ([1]; 60 minutes after) | % ID/g or ml (mean ± standard deviation), Bone ([1]; 2 minutes after) | % ID/g or ml (mean ± standard deviation), Bone ([1]; 30 minutes after) | % ID/g or ml (mean ± standard deviation), Bone ([1]; 60 minutes after) | % ID/g or ml (mean ± standard deviation), Brain ([1]; 2 minutes after) | % ID/g or ml (mean ± standard deviation), Brain ([1]; 30 minutes after) | % ID/g or ml (mean ± standard deviation), Brain ([1]; 60 minutes after) | osseous accumulation [1] | wash-out from the brain [1] | defluorination in vivo [1] | binding to amyloid β protein in the brain section (amyloid β protein)
CNc1ccc(-c2nc3ccc(OC(CO)CF)cc3s2)cc1 (stereo not shown) [[^18F]THK-837] | 3.30 ± 0.17 % ID/g or ml | 1.73 ± 0.26 % ID/g or ml | 1.35 ± 0.77 % ID/g or ml | 1.80 ± 0.17 % ID/g or ml | 1.27 ± 0.11 % ID/g or ml | 1.64 ± 0.12 % ID/g or ml | 6.54 ± 0.19 % ID/g or ml | 0.94 ± 0.08 % ID/g or ml | 0.43 ± 0.03 % ID/g or ml | not observed; also recorded: scarcely observed | clearly more excellent | not subjected to defluorination | 
CNc1ccc(/C=C/c2ccc(OC(CO)CF)cc2)cc1 (stereo not shown) [[^18F]THK-853] | 2.81 ± 0.37 % ID/g or ml | 2.11 ± 0.50 % ID/g or ml | 1.59 ± 0.12 % ID/g or ml | 1.64 ± 0.19 % ID/g or ml | 0.98 ± 0.20 % ID/g or ml | 0.96 ± 0.04 % ID/g or ml | 7.56 ± 0.87 % ID/g or ml | 1.31 ± 014 % ID/g or ml | 0.59 ± 0.04 % ID/g or ml | not observed; also recorded: scarcely observed | clearly more excellent | not subjected to defluorination | 
CNc1ccc(-c2nc3ccc(OC(CO)CF)cc3s2)cc1 (stereo not shown) [THK-837] |  |  |  |  |  |  |  |  |  |  |  |  | bound to amyloid β protein
CNc1ccc(/C=C/c2ccc(OC(CO)CF)cc2)cc1 (stereo not shown) [THK-853] |  |  |  |  |  |  |  |  |  |  |  |  | bound to amyloid β protein
CN(C)c1ncc(C=Cc2nc3ccc(OCCF)cc3o2)s1 [[^18F]BF-227, 2-[2-(2-dimethylaminothiazole-5-yl)ethenyl]-6-(2-fluoroethoxy)benzoxazole, reference compound] | 2.93 ± 0.08 % ID/g or ml | 2.14 ± 0.17 % ID/g or ml | 2.09 ± 0.15 % ID/g or ml | 1.59 ± 0.27 % ID/g or ml | 4.38 ± 1.24 % ID/g or ml | 7.04 ± 0.75 % ID/g or ml | 6.05 ± 0.45 % ID/g or ml | 1.91 ± 0.05 % ID/g or ml | 1.67 ± 0.14 % ID/g or ml | time dependence marked accumulation was observed |  | easily subjected to defluorination | 
